Experimental data as given in patent US7731941B2, “Staining composition for staining an ophthalmic membrane” (priority 2004, dated 2010).
Where “and” joins values, the source holds several entries; their conditions need not be identical. Identical values can stand only once. Entries after “also recorded” stand apart in the source; their conditions may differ. Like-named read-outs stand apart in the source and are kept apart here.

Columns and labels:
corneal endothelium = settings: single anterior chamber injection; for apoptotic cell death (TUNEL) in corneal stromal cells, endothelium, ciliary body and lens cells: BBG 0.01-10 mg/ml, ICG 5 mg/ml
[1] = Osmolarity and pH of the BBG solution; assay type: physicochemical
ILM [2] = assay: BBG in ILM staining, effects and safety in human eyes (first attempt, 16 eyes); assay type: in vivo
Procedure: Sixteen eyes of 16 patients with a macular hole (MH) and epiretinal membranes (ERMS) were recruited from the outpatient unit of Kyushu University Hospital (Fukuoka, Japan) between August and September 2004. Patients with ocular diseases such as glaucoma, uveitis, and corneal disorder were excluded. This study was carried out with the approval from the appropriate institutional Ethics Committee and was performed in accordance with the ethical standards laid down in the 1989 Declaration of Helsinki. The possible advantages and risks of the present treatment were explained to the patients before surgery and informed consent was obtained from all patients. […] The final concentration of BBG was 0.25 mg/ml. […] Removal of the ILM was performed using ILM forceps (D.O.R.C.; Dutch Ophthalmic Research Center International b.v., Netherlands).
Postoperative examinations included slitlamp microscopy, opthalmoscopy, best corrected visual acuity (BCVA) and intraocular pressure. The visual field was evaluated with Humphrey Field Analyzer II (Humphrey Systems, Dublin, Calif., USA) after 2 months.

retina [3] = system: retina
retina [4] = settings: rat, in vivo
retina [5] = settings: rat, in vivo; remark: listed apart in the source
Procedure: Brown Norway rats (n=78 males, 8 weeks old, Kyudo, Fukuoka, Japan) were anesthetized with an intraperitoneal injection of ketamine hydrochloride at a dose of 75 mg/kg body weight. One eye from each animal (total of n=6 per dose group) was vitrectomized using 0.05 ml of pure SF6 gas as described previously. Following the gas injection, 0.05 ml of BBG solution was injected into the vitreous cavity of each vitrectomized eye using a microscope for enhanced magnification during surgery. […] Twenty-four sham-operated eyes (injected with SF6 followed by 0.05 ml of intraocular irrigating solution) were used as controls.
The eyes were enucleated on day 14 and at 2 months post-operation and fixed in 1% glutaraldehyde and 1% paraformaldehyde in PBS. The specimens were postfixed in veronal acetate buffer osmium tetroxide (2%), dehydrated in ethanol and water, and embedded in Epon. Ultrathin sections were cut from blocks and mounted on copper grids.

ILM [6] = system: ILM
Procedure: Since ILM peeling is impossible in rat eyes, the inventors examined the ability of BBG to stain the ILM in primate eyes. Two eyes from two cynomolgus monkeys at 3 years of age were used in this study. The animals were restrained in a squeeze cage and injected intramuscularly in the thigh with 20 mg/kg of ketamine hydrochloride (Sankyo Yell Pharmaceutical Products Co. Ltd., Japan) for general anesthesia. The monkeys were subsequently transported to an operating room. Surgery consisted of a standard three port pars plana vitrectomy with induction of a posterior vitreous detachment by suction with a vitrectomy cutter using triamcinolone acetonide injection for vitreous visualization.
Ten milligrams of BBG were dissolved in 20 ml of intraocular irrigating solution and sterilized with a syringe filter. The final concentration of BBG was 0.5 mg/ml. The prepared BBG solution (0.5 ml) was then injected gently into the vitreous cavity and washed out immediately with balanced salt solution (BSS Plus (Registered trademark), Santen, Osaka, Japan). Removal of the ILM was performed using ILM forceps.

anterior capsule [7] = assay: BBG-assisted continuous curvilinear capsulorhexis in a human eye; assay type: in vivo
Procedure: A person with a white mature cataract underwent BBG-assisted CCC and phacoemulsification with intraocular lens (IOL) implantation in August 2004. The patient had no other ocular diseases, such as glaucoma, uveitis or corneal disorders. Coomassie® BBG 250 (Sigma-Aldrich, St. Louis, USA) was dissolved in intraocular irrigating solution (OPEGUARD®-MA; Senjyu Pharmaceutical Co., Ltd., Osaka, Japan) at a dose of 0.25 mg/ml and sterilized with a syringe filter. The BBG solution was gently injected into the anterior chamber and then washed out immediately with balanced salt solution (BSS).

anterior capsule [8] = assay: Capsular staining ability of BBG in pig eyes
Procedure: The capsular staining ability of BBG was assessed in pig eyes using graded concentrations of the dye.
The pig eyes were obtained from a local slaughterhouse and transported to the laboratory on ice. The extraocular muscles and other connective tissues were carefully cut off and the eyes were placed on the operation chamber. The BBG solution was prepared using the following method. Twenty milligrams of BBG (Coomassie. brilliant blue G 250; Signa-Aldrich, St. Louis, USA) were dissolved in 10 ml of intraocular irrigating solution (OPEGUARD.-MA, Senjyu Pharmaceutical Co., Ltd., Osaka, Japan) and sterilized with a syringe filter (Minisart. Sartorius AG, Goettingen, Germany). Under the operation microscope, the capsular staining by BBG was examined as follows. […] The anterior chamber was immediately irrigated by enhanced balanced salt solution (BSS Plus®, Santen Pharmaceuticals, Japan) and the excessive dye was easily washed out.
To deepen the anterior chamber, 1% sodium hyaluronate (Healon®, Pharmacia, Uppsala, Sweden) was injected. A CCC was initiated by preparing a small triangular anterior capsular flap with a bent 26-gauge disposable needle mounted on a viscoelastic syringe. The CCC was completed using a cystotome or capsulorhexis forceps.

ILM [9] = system: ILM; remark: listed apart in the source
corneal cells = assay: Anterior chamber injection of dyes in rats: transmission electron microscopy; settings: single anterior chamber injection; BBG 10 mg/ml, ICG 5 mg/ml, TB 1 mg/ml
Procedure: Brown Norway rats (Kyudo, Fukuoka, Japan), postnatal 8 weeks, were studied as follows. The rats were anesthetized with an intraperitoneal injection of pentobarbital and their pupils were dilated with topical 1% tropicamide and 2.5% phenylephrine hydrochloride. The anterior chamber was entered through the clear cornea with a 30-gauge needle mounted on a syringe. Then a single anterior chamber injection was performed with each dye, BBG (10, 1, 0.5, 0.25, 0.1 and 0.01 mg/ml), ICG (5 mg/ml), trypan blue (1 mg/ml), and the control OPEGUARD. solution (n=6 for each dye, total 54 eyes).
The dye remained in the anterior chamber and was followed by biomicroscopic examination for 2 months. The eyes were enucleated at 2 weeks and 2 months after operation. The eyes were analyzed by light microscopy, transmission and scanning electron microscopy.
The eyes were enucleated and the anterior segments were fixed in 1% glutaraldehyde and 1% paraformaldehyde in PBS. The specimens were postfixed in veronal acetate buffer osmium tetroxide (2%), dehydrated in ethanol and water, and embedded in Epon. Ultrathin sections were cut from blocks and mounted on copper grids.

cornea = assay: Anterior chamber injection of dyes in rats: light microscopy (HE); assay type: in vivo, Brown Norway rats; settings: single anterior chamber injection; BBG 0.01-10 mg/ml, ICG 5 mg/ml, TB 1 mg/ml; 2 weeks and 2 months
Source text: The eyes were fixed in 4% paraformaldehyde and cut in half, embedded in paraffin, deparaffinized in xylene, rehydrated in ethanol, and washed in phosphate-buffered saline (PBS). The 4 μm thick sections were stained by hematoxylin and eosin, and observed by light microscope.

anterior capsule [10] = settings: stated for comparison, no test described; cited from earlier work
[11] = BBG 10 mg/ml in intraocular irrigating solution (OPEGUARD-MA)
[12] = 0.25 mg/ml, 0.5 ml intravitreal, washed out immediately
[13] = individual patient case, BBG 0.25 mg/ml

## CCOc1ccc(Nc2ccc(/C(=C3C=C/C(=[N+](/CC)Cc4cccc(S(=O)(=O)[O-])c4)C=C/3C)c3ccc(N(CC)Cc4cccc(S(=O)(=O)[O-])c4)cc3C)cc2)cc1.[Na+] [BBG, Brilliant Blue G]
Corneal endothelium
  apoptotic cell death (TUNEL) in corneal stromal cells, endothelium, ciliary body and lens cells: no TUNEL staining was observed
[1]; BBG 0.01 mg/ml in OPEGUARD-MA
  Osmolarity: 298 mOsm/KgH20
  pH: 7.41
[1]; BBG 0.1 mg/ml in OPEGUARD-MA
  Osmolarity: 298 mOsm/KgH20
  pH: 7.41
[1]; BBG 0.25 mg/ml in OPEGUARD-MA
  osmolarity of prepared BBG solution: 289 mOsm
  pH of prepared BBG solution: 7.44
[1]; BBG 1.0 mg/ml in OPEGUARD-MA
  Osmolarity: 300 mOsm/KgH20
  pH: 7.42
[1]; [11]
  Osmolarity: 310 mOsm/KgH20
  pH: 7.41
ILM [2]; 0.25 mg/ml
  staining of the ERMS: could not be confirmed
ILM [2]; [12]
  ILM staining: stained a light blue color
ILM [2]; 16 eyes, BBG 0.25 mg/ml
  elevation of intraocular pressure: None of the patients had an elevation of intraocular pressure
ILM [2]; 16 eyes, MH and ERM, BBG 0.25 mg/ml assisted peeling
  visual acuity: recovered in all cases
ILM [2]; [13]
  Postop. Retinal status: MH closed; also recorded: Fold (−); also recorded: Macular
  complications: Peripheral (2×) and none (13×) and Vitreous
ILM [2]; individual patient case, BBG 0.25 mg/ml, follow up 2-4 months
  Postop. BCVA: 20/50 (2×) and 20/63 (2×) and 20/25 (2×) and 20/32 (4×) and 20/40 (3×) and 20/16 and 20/20
ILM [2]; within the observation period
  other adverse effects due to BBG: No other adverse effects
Retina [3]; all BBG dose groups, after 2 months
  apoptotic cell death of retinal cells: had not undergone apoptotic cell death
Retina [3]; intravitreal 10 mg/ml, day 14
  apoptotic cell death in retina (TUNEL): one case of apoptotic cell death was observed from among ten sections
  apoptotic cell ratio compared with control sections: not significantly different
Retina [3]; intravitreal lower doses, day 14
  TUNEL staining in the retina: no TUNEL staining was observed
Retina [4]
  infiltration of inflammatory cells (light microscopy): no infiltration of inflammatory cells was observed
  toxic effects such as corneal edema, severe retinal edema, or endophthalmitis (surgical microscopy): no toxic effects
Retina [5]
  changes in inner nuclear, outer nuclear and retinal pigment epithelial cell layers (TEM): no remarkable changes were observed
ILM [6]; 0.5 mg/ml, 0.5 ml into vitreous cavity, washed out immediately
  ILM staining: stained a light blue color
ILM [6]; ratio to ICG concentration
  concentration of BBG required to stain the ILM of primates in comparison with ICG: about 1/10
Anterior capsule [7]; 0.25 mg/ml into anterior chamber, immediately irrigated, white mature cataract
  visibility of the anterior capsule during CCC: clearly visible
Anterior capsule [7]; after 2 months
  corneal endothelial cell loss: 0.8%
Anterior capsule [7]; improved from light perception (LP)
  visual acuity after surgery: 20/20
Anterior capsule [7]; the following day
  acute toxicity (corneal edema, severe inflammation or elevated intraocular pressure): no acute toxicity
Anterior capsule [8]
  concentration providing satisfactory staining of the anterior capsule: 0.25 mg/mL
Anterior capsule [8]; 0.1 mg/ml and 0.01 mg/ml
  capsular staining: obscure
Anterior capsule [8]; 0.25 mg/ml to 1 mg/ml, staining deepened with concentration
  staining of the anterior capsule: stained the anterior capsule homogenously
Anterior capsule [8]; pig eye anterior capsule
  minimal concentration needed to produce high quality staining with clear visualization: 0.25 mg/mL
ILM [9]; 0.25 mg/ml
  staining of the ERM in ERM cases: could not be confirmed
ILM [9]; [12]
  ILM staining in MH cases: stained a bright blue color instantly
ILM [9]; 0.25 mg/ml, second injection after ERM peeling
  staining of the ILM of the area where the ERM had been removed: well stained
ILM [9]; 20 eyes
  removal of the ILM including the ERM during surgery: removed from all 20 eyes successfully
ILM [9]; ERM cases, eight of 10 patients
  patients with improvement of 2 or more lines on the Snellen chart: 80%
ILM [9]; ERM cases, preoperative 454.7±141.3 μm
  mean foveal thickness of retina measured with OCT, postoperative: 249.4±71.3 μm
ILM [9]; ERM cases, preoperative median 20/50
  postoperative median BCVA: 20/32
ILM [9]; MH cases, 9 of 10 eyes
  eyes with visual acuity improved by 2 or more Snellen lines: 90%
ILM [9]; MH cases, preoperative median 20/100
  postoperative median BCVA: 20/32
ILM [9]; all 10 MH cases
  closure of MH (ophthalmoscopy and OCT): completely closed anatomically
ILM [9]; in vivo
  complication: protraction of vitreous hemorrhage: one case
  complications: iatrogenic peripheral retinal breaks: two cases
  elevation of IOP: 26 mmHg
  other adverse effects such as retinal pigment epithelium (RPE) atrophy: No other adverse effects
ILM [9]; individual MH case
  Postop. Retinal status: MH closed

## CC1(C)C(/C=C/C=C/C=C/C=C2\N(CCCCS(=O)(=O)O)c3ccc4ccccc4c3C2(C)C)=[N+](CCCCS(=O)(=O)[O-])c2ccc3ccccc3c21 [ICG, Indocyanine green]
Corneal endothelium
  apoptotic cell death (TUNEL) in corneal stromal cells, endothelium, ciliary body and lens cells: no apparent apoptotic cell death was detected
Corneal cells
  ultrastructure of corneal cells and endothelium (TEM): some endothelial cells demonstrated signs of mitochondrial swelling
cornea
  changes in hematoxilin and eosin stained sections of the cornea: no remarkable changes
Anterior capsule [10]
  concentration required for staining of the anterior capsule (comparison dyes): 5 mg/mL

## Cc1cc(-c2ccc(/N=N/c3c(S(=O)(=O)O)cc4cc(S(=O)(=O)O)cc(N)c4c3O)c(C)c2)ccc1/N=N/c1c(S(=O)(=O)O)cc2cc(S(=O)(=O)O)cc(N)c2c1O [TB, Trypan Blue]
Corneal endothelium; TB 1 mg/ml
  apoptotic cell death of corneal endothelium, share of the total endothelial cells: 2%
Anterior capsule [10]
  concentration required for staining of the anterior capsule (comparison dyes): 1 mg/mL
